Results published in ChEMBL document CHEMBL3232950, “Quinolone-benzylpiperidine derivatives as novel acetylcholinesterase inhibitor and antioxidant hybrids for Alzheimer disease” (Bioorg Med Chem, 2014).

Legend:
Acetylcholinesterase [1] = molecular target: Acetylcholinesterase (Electrophorus electricus, UniProt O42275)
Description: Inhibition of electric eel AChE using acetylthiocholine iodide as substrate preincubated with enzyme for 10 mins prior to substrate challenge measured after 15 mins by Ellman's method

Cholinesterase = Cholinesterase (Equus caballus, UniProt P81908)
Description: Inhibition of BuChE in equine serum using butyrylthiocholine iodide as substrate preincubated with enzyme for 10 mins prior to substrate challenge measured after 15 mins by Ellman's method

Acetylcholinesterase [2] = molecular target: Acetylcholinesterase (Homo sapiens, UniProt P22303); assay: Inhibition of AChE in human erythrocytes using acetylthiocholine iodide as substrate preincubated with enzyme for 10 mins prior to substrate challenge measured after 15 mins by Ellman's method; format: cell-based
[3] = test system: Radical scavenging activity
Description: Antioxidant activity assessed as DPPH radical scavenging activity after 2 hrs by absorbance analysis

[4] = Antioxidant activity assessed as superoxide anion radical scavenging activity at 100 uM by non-enzymatic phenazine methosulfate NADH-system; format: functional

Chain of Cholinesterase (P81908 whole entry): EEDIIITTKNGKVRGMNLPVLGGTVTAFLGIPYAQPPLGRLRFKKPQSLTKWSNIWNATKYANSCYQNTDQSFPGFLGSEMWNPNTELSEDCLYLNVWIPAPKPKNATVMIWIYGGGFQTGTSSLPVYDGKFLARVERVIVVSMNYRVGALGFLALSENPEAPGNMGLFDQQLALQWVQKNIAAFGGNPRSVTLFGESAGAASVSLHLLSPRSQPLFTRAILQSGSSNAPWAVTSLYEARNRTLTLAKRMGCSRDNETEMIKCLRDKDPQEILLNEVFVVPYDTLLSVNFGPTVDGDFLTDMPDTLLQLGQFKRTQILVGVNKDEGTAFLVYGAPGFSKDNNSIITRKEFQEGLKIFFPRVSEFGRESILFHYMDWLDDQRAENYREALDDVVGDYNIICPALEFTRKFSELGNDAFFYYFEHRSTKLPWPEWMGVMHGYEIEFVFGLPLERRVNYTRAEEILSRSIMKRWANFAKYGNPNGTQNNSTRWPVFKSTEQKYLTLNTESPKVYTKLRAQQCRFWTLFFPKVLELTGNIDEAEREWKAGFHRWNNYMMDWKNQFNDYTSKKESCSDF
Chain of Acetylcholinesterase (Electrophorus electricus, UniProt O42275) (O42275 whole entry): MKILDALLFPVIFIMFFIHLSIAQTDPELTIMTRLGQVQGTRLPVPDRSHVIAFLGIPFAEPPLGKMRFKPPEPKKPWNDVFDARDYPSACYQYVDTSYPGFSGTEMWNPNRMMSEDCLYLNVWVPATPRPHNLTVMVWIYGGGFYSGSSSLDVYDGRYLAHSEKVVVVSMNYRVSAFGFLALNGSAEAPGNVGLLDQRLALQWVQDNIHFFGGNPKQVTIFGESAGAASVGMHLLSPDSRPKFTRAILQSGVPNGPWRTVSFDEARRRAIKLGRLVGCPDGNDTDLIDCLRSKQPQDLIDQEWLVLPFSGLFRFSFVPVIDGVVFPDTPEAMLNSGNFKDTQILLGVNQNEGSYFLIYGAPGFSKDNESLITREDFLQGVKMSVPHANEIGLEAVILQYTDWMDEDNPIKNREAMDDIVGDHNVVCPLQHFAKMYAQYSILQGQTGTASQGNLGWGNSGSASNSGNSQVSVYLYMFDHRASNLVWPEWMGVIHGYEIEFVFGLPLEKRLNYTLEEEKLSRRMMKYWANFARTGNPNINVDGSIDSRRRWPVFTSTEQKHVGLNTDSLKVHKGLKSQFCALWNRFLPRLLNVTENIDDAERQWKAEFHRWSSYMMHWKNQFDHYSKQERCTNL
Chain of Acetylcholinesterase (Homo sapiens, UniProt P22303) (P22303 whole entry): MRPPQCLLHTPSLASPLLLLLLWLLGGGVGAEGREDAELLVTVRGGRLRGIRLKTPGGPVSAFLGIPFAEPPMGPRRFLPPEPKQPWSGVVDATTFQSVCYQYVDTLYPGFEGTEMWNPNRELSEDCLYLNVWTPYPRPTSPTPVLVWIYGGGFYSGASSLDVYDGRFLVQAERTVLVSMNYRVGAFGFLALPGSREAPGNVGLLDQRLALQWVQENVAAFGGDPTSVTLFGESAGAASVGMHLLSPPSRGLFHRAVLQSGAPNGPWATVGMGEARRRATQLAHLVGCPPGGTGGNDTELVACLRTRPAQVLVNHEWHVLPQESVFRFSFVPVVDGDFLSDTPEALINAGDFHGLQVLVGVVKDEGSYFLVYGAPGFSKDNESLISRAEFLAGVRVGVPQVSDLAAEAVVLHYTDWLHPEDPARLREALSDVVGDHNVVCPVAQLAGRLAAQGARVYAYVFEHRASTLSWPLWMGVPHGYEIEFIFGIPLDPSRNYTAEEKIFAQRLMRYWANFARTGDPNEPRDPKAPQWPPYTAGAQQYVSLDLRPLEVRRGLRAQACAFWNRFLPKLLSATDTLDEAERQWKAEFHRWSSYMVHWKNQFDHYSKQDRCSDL

## O=C(NC1CCN(Cc2ccccc2)CC1)c1c(-c2ccccc2)c2ccccc2[nH]c1=O
Acetylcholinesterase [1]
  IC50: > 10 µM
Cholinesterase
  IC50: > 10 µM

## COc1cc2[nH]c(=O)c(C(=O)NCC3CCN(Cc4ccccc4)CC3)c(O)c2cc1OC
Acetylcholinesterase [2]
  IC50: 0.23 µM
Acetylcholinesterase [1]
  IC50: 0.11 µM
Cholinesterase
  IC50: > 60 µM

## O=C(NC1CCN(Cc2ccccc2)CC1)c1c(O)c2ccccc2n(Cc2ccccc2)c1=O
Acetylcholinesterase [1]
  IC50: 0.39 µM
Cholinesterase
  IC50: > 10 µM

## O=c1c(O)c(-c2ccc(O)c(O)c2)oc2cc(O)cc(O)c12 [QUERCETIN]
[3]
  EC50: 10.3 µM

## Cn1c(=O)c(C(=O)NC2CCN(Cc3ccccc3)CC2)c(O)c2ccccc21
Acetylcholinesterase [1]
  IC50: 1.52 µM
Cholinesterase
  IC50: > 10 µM

## COc1cc(/C=C/C(=O)CC(=O)/C=C/c2ccc(O)c(OC)c2)ccc1O [CURCUMIN]
[3]
  EC50: 26.6 µM

## O=C(NCC1CCN(Cc2ccccc2)CC1)c1c(O)c2ccccc2n(Cc2ccccc2)c1=O
Acetylcholinesterase [1]
  IC50: 0.49 µM
Cholinesterase
  IC50: > 10 µM

## Cn1c(=O)c(C(=O)NCC2CCN(Cc3ccccc3)CC2)c(O)c2cc(O)c(O)cc21
[4]
  Activity: 40%
Acetylcholinesterase [1]
  IC50: 2.02 µM
Cholinesterase
  IC50: > 10 µM
[3]
  EC50: 21.7 µM

## Cc1c(C(=O)NCC2CCN(Cc3ccccc3)CC2)c(=O)[nH]c2ccccc12
Acetylcholinesterase [1]
  IC50: 0.47 µM
Cholinesterase
  IC50: > 10 µM

## COc1cc2c(O)c(C(=O)NCC3CCN(Cc4ccccc4)CC3)c(=O)n(Cc3ccccc3)c2cc1OC
Acetylcholinesterase [1]
  IC50: 0.27 µM
Cholinesterase
  IC50: > 60 µM

## O=C(NCC1CCN(Cc2ccccc2)CC1)c1c(O)c2cc(O)c(O)cc2n(Cc2ccccc2)c1=O
Acetylcholinesterase [1]
  IC50: > 10 µM
Cholinesterase
  IC50: > 10 µM
[3]
  EC50: 20.8 µM

## COc1cc2c(O)c(C(=O)NCC3CCN(Cc4ccccc4)CC3)c(=O)n(C)c2cc1OC
Acetylcholinesterase [1]
  IC50: 2.93 µM
Cholinesterase
  IC50: > 10 µM

## O=C(NC1CCN(Cc2ccccc2)CC1)c1c(O)c2ccccc2[nH]c1=O
Acetylcholinesterase [1]
  IC50: 2.27 µM
Cholinesterase
  IC50: > 10 µM

## Cc1c(C(=O)NC2CCN(Cc3ccccc3)CC2)c(=O)[nH]c2ccccc12
Acetylcholinesterase [1]
  IC50: 2.46 µM
Cholinesterase
  IC50: > 10 µM

## COc1cc(Cn2c(=O)c(C(=O)NCC3CCN(Cc4ccccc4)CC3)c(O)c3ccccc32)cc(OC)c1O
[4]
  Activity: 33%
Acetylcholinesterase [1]
  IC50: 0.56 µM
Cholinesterase
  IC50: 0.33 µM
[3]
  EC50: 90.5 µM

## O=C(NCC1CCN(Cc2ccccc2)CC1)c1c(O)c2cc(O)c(O)cc2[nH]c1=O
Acetylcholinesterase [2]
  IC50: 0.98 µM
Acetylcholinesterase [1]
  IC50: 0.48 µM
Cholinesterase
  IC50: > 10 µM
[3]
  EC50: 12.2 µM

## Cn1c(=O)c(C(=O)NCC2CCN(Cc3ccccc3)CC2)c(N)c2ccccc21
Acetylcholinesterase [1]
  IC50: 0.38 µM
Cholinesterase
  IC50: 1.14 µM

## Cn1c(=O)c(C(=O)NCC2CCN(Cc3ccccc3)CC2)c(O)c2ccccc21
Acetylcholinesterase [1]
  IC50: 0.37 µM
Cholinesterase
  IC50: 4.26 µM

## O=C(NCC1CCN(Cc2ccccc2)CC1)c1c(O)c2ccccc2n(Cc2cc(O)c(O)c(O)c2)c1=O
Acetylcholinesterase [1]
  IC50: 3.89 µM
Cholinesterase
  IC50: > 10 µM
[3]
  EC50: 107 µM

## O=C(NCC1CCN(Cc2ccccc2)CC1)c1c(O)c2ccccc2[nH]c1=O
Acetylcholinesterase [1]
  IC50: 1.41 µM
Cholinesterase
  IC50: 6.02 µM
